Like-named read-outs stand apart in the source and are kept apart here.
Legend:
[1] = PK experiment of cynomolgus monkeys; format: in vivo; conditions: cynomolgus monkey, plasma; for half-life / AUC(0-t) / Cmax: single dose; for half-life: male cynomolgus monkeys, read-out: Half-life period (T1/2) (converted); for AUC(0-t): read-out: Area under the curve AUC(0-t) in the case of administration; for Cmax: read-out: Peak concentration Cmax
From the text: The purpose of this experiment was to evaluate the pharmacokinetic behavior of the compound to be tested after single intravenous and intragastric administration, and to study the bioavailability after intragastric administration, providing animal experimental data for clinical studies.
Preparation of solutions for intravenous injection and intragastric administration: an appropriate amount of compound to be tested was accurately weighed, and mixed with a suitable solvent (5 vol % DMSO+10 vol % polyethylene glycol−15-hydroxystearate+85 vol % normal saline). After vortex, or ultrasound processing, a clear and transparent solution (the solution for intravenous injection administration), or a uniform suspension was obtained. The solution administrated by intravenous injection needed to be filtered through a 0.22 μm filter membrane
Experimental design: before the first dose the cynomolgus monkeys were divided into 2 groups by body weight with 3 male cynomolgus monkeys in each group, where animals in group 1 were given the compound to be tested (1 mg/kg) by single intravenous injection (IV); and animals in the 2rd group were administrated with the compound to be tested (5 mg/kg) by single intragastric administration (PO). The animals were weighed before administration, and dosages were calculated based on the weights of the animals.
Sample collection: a whole blood sample (about 0.2 mL) was collected at a specified time by venipuncture of an upper limb (or other suitable blood collection sites), and the actual blood collection time was recorded in test records. The acceptable error for one acquisition time point within 1 hour after administration is ±1 minute, and the acceptable error for other time points is ±5% of the theoretical time. All blood samples were immediately transferred to a labeled commercial centrifuge tube containing K2-EDTA. After blood sample collection, the blood sample was centrifuged at 4° C. and 3,200 g for 10 minutes, the supernatant plasma was sucked, quickly put in dry ice, and kept in a refrigerator at −70±10° C. for LC-MS/MS analysis. The collection time of both groups was 0.083 hour, 0.25 hour, 0.5 hour, 1 hour, 2 hours, 4 hours, 8 hours and 24 hours after administration.
Data processing: Area under the curve (AUC(0-t) and AUC(0-∞)), elimination half-life (T½), peak concentration (Cmax), time to reach maximum plasma concentration (Tmax), etc., were calculated by the non-compartment analysis module in Phoenix WinNonlin 7.0.

TRα-LBD/RXRα = biological target: T1, TRα-LBD/RXRα (Homo sapiens, UniProt P10827); test: In vitro binding experiment (TR-FRET SRC2-2 co-activator peptide recruitment), TRα; format: biochemical; conditions: 4 h incubation at room temperature
T1 construct: TRα-LBD (Invitrogen, PV4762), or TRβ-LBD (Invitrogen, PV4764) with a GST tag were used; purchased Invitrogen (TRα-LBD); Pharmaron (RXRα) PV4762
T1 sequence (P10827 1-410 isoform P10827-2, other chains not shown): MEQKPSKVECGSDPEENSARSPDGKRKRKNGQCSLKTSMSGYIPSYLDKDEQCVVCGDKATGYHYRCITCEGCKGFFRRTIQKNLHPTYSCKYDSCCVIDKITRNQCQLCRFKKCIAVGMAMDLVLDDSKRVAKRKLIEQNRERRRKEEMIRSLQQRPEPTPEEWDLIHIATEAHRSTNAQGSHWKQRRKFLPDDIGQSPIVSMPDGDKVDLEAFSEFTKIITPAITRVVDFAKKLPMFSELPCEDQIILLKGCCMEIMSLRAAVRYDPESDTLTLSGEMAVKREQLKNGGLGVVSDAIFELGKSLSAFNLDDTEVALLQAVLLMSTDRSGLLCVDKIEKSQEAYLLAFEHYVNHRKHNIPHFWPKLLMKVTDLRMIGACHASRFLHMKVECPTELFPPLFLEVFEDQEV
T1 sequence (P19793 whole entry partner, other chains not shown, the tested form may be a part): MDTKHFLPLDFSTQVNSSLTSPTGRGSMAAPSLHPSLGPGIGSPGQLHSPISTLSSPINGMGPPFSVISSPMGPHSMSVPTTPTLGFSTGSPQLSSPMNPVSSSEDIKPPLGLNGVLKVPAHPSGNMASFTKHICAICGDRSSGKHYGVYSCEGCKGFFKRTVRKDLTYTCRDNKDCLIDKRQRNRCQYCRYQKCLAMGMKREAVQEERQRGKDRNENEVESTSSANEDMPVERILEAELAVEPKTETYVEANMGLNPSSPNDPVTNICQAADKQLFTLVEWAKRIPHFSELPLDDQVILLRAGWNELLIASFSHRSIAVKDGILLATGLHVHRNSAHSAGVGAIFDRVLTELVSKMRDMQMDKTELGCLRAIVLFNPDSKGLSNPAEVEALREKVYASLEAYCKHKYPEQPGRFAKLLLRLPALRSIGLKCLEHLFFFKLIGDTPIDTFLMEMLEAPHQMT

NASH model = test: In vivo pharmacological experiment: DIO + CCl4 induced NASH model; design: species or system C57BL/6J male mice; conditions: oral, once per day
Description: In the early stages of this experiment, mice induced by DIO (diet-induced obesity) were fed with a high-fat diet, followed by intraperitoneal injection of CCl4 during high-fat diet feeding to induce the NASH model. In this model, the anti-NASH efficacy of the compound to be tested was evaluated Animal information: C57BL/6J male mice (18 weeks old) were used, comprising 32 DIO mice+8 normal mice, wherein the weight of DIO mice >38 g. [table] [table] Induction with CCl4: A 25% (volume ratio) of CCl4 solution was prepared by placing 1 part CCl4 and 3 parts olive oil in a glass bottle. The solution was mixed well and used right after it was ready Eight mice in the first group were intraperitoneally injected with normal saline solution as normal controls The mice in the 2rd to 5th groups were intraperitoneally injected with 25% CCl4 solution twice a week. 25% (volume ratio) CCl4 was administered by body weight, 0.5 ml/kg. The interval between the injection time of CCl4 and the time of administration on the day should be more than 4 hours Histopathological Analysis All liver samples were dehydrated by a dehydrating instrument (Leica HistoCore Pearl-0348) and then embedded by a paraffin embedding machine (HistoCoreArcadia). The embedded liver sample was then sliced using a Lecia RM2235 machine. NAS Score NAS scores were performed on HE (hematoxylin-eosin) stained slices as the sum of steatosis, balloon degeneration, and lobular inflammation. [table] […] Percentage of Fibrosis All slices stained with Sirius red were scanned by a Leica Aperio AT2 Brightfield scanner, and then a percentage of Sirius red positive staining area was calculated by the HALO AI system to evaluate the percentage area of the Sirius red in the total liver area scanned.

Structure (SMILES): CC(C)c1nc(Oc2c(Cl)cc(-n3ncc(=O)[nH]c3=O)cc2Cl)ncc1O [KH06]
- half-life ([1]; IV, 1 mg/kg): 9 h
- half-life ([1]; PO, 5 mg/kg): 16.7 h
- bioavailability ([1]; male, PO 5 mg/kg vs IV 1 mg/kg, read-out: Bioavailability (F)): 73%
- AUC(0-t) ([1]; male, IV, 1 mg/kg): 48.8 µg·h/mL
- Cmax ([1]; male, IV, 1 mg/kg): 20700 ng/mL
- AUC(0-t) ([1]; male, PO, 5 mg/kg): 178 µg·h/mL
- Cmax ([1]; male, PO, 5 mg/kg): 18300 ng/mL
- EC50 (TRα-LBD/RXRα): 0.094 µM
- NAS score (sum of steatosis, ballooning degeneration and lobular inflammation) (NASH model; 1 and 3 mg/kg, compared with the model group, FIG. 2): significant reduction in score
- fibrosis evaluation (percentage of Sirius red positive area) (NASH model; 1 and 3 mg/kg, day 0 to day 27, FIG. 1): reducing the proportion of fibrosis
- fibrosis efficacy compared with MGL3196 at 3 mg/kg (NASH model; KH06 1 mg/kg, FIG. 1): better than that of MGL3196 at a dosage of 3 mg/kg
- NAS score efficacy compared with MGL3196 at 3 mg/kg (NASH model; KH06 1 mg/kg, FIG. 2): same efficacy as MGL3196 at 3 mg/kg

From patent US20230257367A1, “NOVEL THYROID HORMONE BETA RECEPTOR AGONIST” (Chengdu Kanghong Pharmaceutical Co., Ltd., priority 2020, published 2023)
